Data taken from patent publication US12133936B2, “Surgical system and methods of use” (priority 2021, dated 2024).

Tests used:
fibrinolysis = experiment: prevention / reversal of fibrinolysis; conditions: one tenth of the doses used in the non-GLP acute porcine study
Text: (§1) However, in some embodiments, however, higher doses of tranexamic acid are used for topical applications to account for tranexamic acid being widely distributed throughout the extracellular and intracellular compartments when given preoperatively.

[1] = in vivo
Text: as §1

myofibroblast formation = conditions: Ajmal et al. (2003); cited from earlier work

Row | Compound | reversing fibrinolysis (fibrinolysis) | time to reach plasma concentrations [1] [min] | myofibroblast formation (myofibroblast formation)
1 | NC[C@H]1CC[C@H](C(=O)O)CC1 [tranexamic acid, trans-4-(aminomethyl)cyclohexanecarboxylic acid] | effective in reversing fibrinolysis | 5 to 15 | 
2 | O=S(=O)([O-])CCS.[Na+] [MESNA, sodium 2-mercaptoethane sulfonate] |  |  | diminish myofibroblast formation
